“And” between values parts separate entries of the source, which are not always exact repeats. Equal values may be shown once.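 Tested at 5 concentrations; 48 h exposure; 96-well plates; endpoints linearly interpolated, else capped at highest concentration. At the GI50, growth is halved. Definition used: TGI = concentration required for complete inhibition of growth.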
Key:
Test in all cases: NCI tumour cell line growth inhibition, 48 h
[1] = test system: MDA-N
[2] = test system: SNB-78 CNS
[3] = test system: DMS 273 small cell lung
[4] = test system: DMS 114 small cell lung
[5] = test system: M19-MEL melanoma
[6] = test system: LXFL 529 NSCLC
[7] = test system: HOP-18 NSCLC
[8] = test system: RXF-631 renal
[9] = test system: XF 498 CNS
[10] = test system: SN12K1 renal

With `CS(=O)(=O)OCC1OC(n2ccc(NC(=O)c3ccccc3)nc2=O)CC1OS(C)(=O)=O` (stereo unspecified) the TGI [1] was > 100 µM.

With `CC1(Cl)CC2OC3(Br)C=CC(C)(O)C2(CC1Br)C3(C)C` (stereo unspecified) the TGI [2] was > 100 µM, the TGI [3] was > 100 µM and the TGI [4] was > 100 µM. For the same compound, the TGI [5] was > 100 µM, the TGI [6] was > 100 µM and the TGI [7] was > 100 µM.

With `CC(=O)Oc1cc(C)c2c(c1OC(C)=O)CC1(O2)[C@@H](C)CCC2[C@@]3(C)CC[C@H](OC(C)=O)C(C)(C)C3CC[C@]21C` (stereo partly specified) the TGI [8] was 19.9 µM, the TGI [2] was 4.64 µM and the TGI [3] was 4.46 µM. The TGI [4] was 4.49 µM, the TGI [5] was 5.04 µM and the TGI [6] was 16 µM. For the same compound, the TGI [7] was 6.81 µM.

For `Nc1nc2sc3ccccc3c(=O)n2n1`, the TGI [2] was > 100 µM, the TGI [3] was > 100 µM and the TGI [4] was > 100 µM. For the same compound, the TGI [6] was > 100 µM, the TGI [9] was > 100 µM and the TGI [7] was > 100 µM.

`CC(=O)N1c2ccccc2C2=CC3C4C(=O)N(c5ccccc5)C(=O)C4C21C1C(=O)N(c2ccccc2)C(=O)C31` (stereo unspecified) was tested, and the TGI [2] was > 100 µM, the TGI [4] was 44.1 µM and the TGI [6] was > 100 µM. The TGI [9] was 76.8 µM and the TGI [7] was > 100 µM.

With `Cc1noc2cccc(OCc3ccccc3)c12` the TGI [8] was > 100 µM, the TGI [2] was > 100 µM and the TGI [3] was > 100 µM. For the same compound, the TGI [4] was > 100 µM, the TGI [5] was > 100 µM and the TGI [6] was > 100 µM. For the same compound, the TGI [9] was > 100 µM and the TGI [7] was > 100 µM.

For `CCOC(=O)/C(=N\OC)C(O)C(F)(F)F` (stereo unspecified), the TGI [1] was > 100 µM.

In the case of `O=S(=O)(N/N=C/c1ccc(Cl)c(Cl)c1)c1ccccc1`, the TGI [2] is reported as > 100 µM, the TGI [3] is reported as > 100 µM and the TGI [4] is reported as 87 µM. For the same compound, the TGI [5] was > 100 µM, the TGI [6] was > 100 µM and the TGI [9] was > 100 µM. The TGI [7] was > 100 µM.

With `Cc1cc(Cl)cc2c(N=Nc3ccccc3[N+](=O)[O-])c(O)[nH]c12` the TGI [1] was > 100 µM.

`O=[N+]([O-])c1ccccc1N=Nc1c(O)[nH]c2ccc(Br)cc12` was tested, and the TGI [1] was > 60.5 µM.

For `Nc1cc(C(=O)O)[nH]c(=O)n1`, the TGI [1] was > 100 µM.

For `COC(c1cccc(C(O)(C(F)(F)F)C(F)(F)F)c1)(C(F)(F)F)C(F)(F)F`, the TGI [3] was 34.8 µM, the TGI [4] was 32.6 µM and the TGI [5] was 30.5 µM. For the same compound, the TGI [6] was 32 µM, the TGI [9] was 28.2 µM and the TGI [7] was 32.1 µM.

In the case of `CCOC(=O)N1C2C=C(C)C(ON2C(=O)c2ccccc2)C2C(C)C(=O)N21` (stereo unspecified), the TGI [2] is reported as > 100 µM, the TGI [3] is reported as > 100 µM and the TGI [4] is reported as > 100 µM. The TGI [5] was > 100 µM, the TGI [6] was > 100 µM and the TGI [9] was > 100 µM. For the same compound, the TGI [7] was > 100 µM.

For `N#CC(/C(=N/NC(=O)C(=O)NN)C(=O)Nc1nc([N+](=O)[O-])cs1)c1ccc(Cl)cc1` (stereo unspecified), the TGI [2] was > 100 µM, the TGI [4] was > 100 µM and the TGI [5] was > 100 µM. For the same compound, the TGI [6] was > 100 µM and the TGI [9] was > 100 µM.

In the case of `Cc1ccccc1C1=[N+]([O-])c2ccccc2C1=O`, the TGI [8] is reported as 42.8 µM, the TGI [4] is reported as 27.4 µM and the TGI [5] is reported as 28.5 µM. The TGI [6] was 28.3 µM, the TGI [9] was 31.3 µM and the TGI [7] was 54.4 µM.

In the case of `COc1ccc2c(c1)C(=O)N1CCOC1C2C(=O)O` (stereo unspecified), the TGI [8] is reported as > 100 µM, the TGI [2] is reported as > 100 µM and the TGI [3] is reported as 11.2 µM. The TGI [4] was > 100 µM, the TGI [5] was > 100 µM and the TGI [6] was > 100 µM. The TGI [9] was > 100 µM and the TGI [7] was > 100 µM.

In the case of `O=C(C=Nc1ccccc1C(=O)[O-])c1cccs1.O=C(C=Nc1ccccc1C(=O)[O-])c1cccs1.[Co+2]`, the GI50 [5] is reported as > 100 µM, the TGI [5] is reported as > 100 µM and the TGI [7] is reported as > 100 µM.

For `C=C(C)C1Cc2c(cc(OC)c3c(=O)c4cccc(O)c4oc23)O1` (stereo unspecified), the TGI [1] was 53.1 µM.

With `CCCCCCCC(=O)NCC(O)CNC(=O)CCCCCCC` the TGI [2] was > 100 µM, the TGI [3] was > 100 µM and the TGI [4] was > 100 µM. For the same compound, the TGI [5] was > 100 µM, the TGI [6] was > 100 µM and the TGI [9] was > 100 µM. The TGI [7] was > 100 µM.

`O=C(O)C1=CCCc2ccc3ccccc3c21` was tested, and the TGI [8] was > 100 µM, the TGI [2] was > 100 µM and the TGI [3] was > 100 µM. The TGI [4] was > 100 µM, the TGI [5] was > 100 µM and the TGI [6] was > 100 µM. For the same compound, the TGI [9] was > 100 µM and the TGI [7] was > 100 µM.

For `O=C(Nc1ccccc1)c1nn(-c2cc(S(=O)(=O)O)c([N+](=O)[O-])cc2Cl)[n+](-c2cc(S(=O)(=O)[O-])c([N+](=O)[O-])cc2Cl)n1`, the TGI [1] was > 100 µM.

For `CSc1cccc(-n2c3nc(=O)n(C)c(=O)c-3nc3ccccc32)c1`, the TGI [2] was 43.7 µM, the TGI [3] was 13.2 µM and the TGI [4] was 14.9 µM. For the same compound, the TGI [5] was 5.03 µM, the TGI [6] was 26.2 µM and the TGI [9] was 13.4 µM. The TGI [7] was 26.2 µM.

With `CC(=O)O[C@@]12CO[C@@H]1C[C@H](O)[C@@]1(C)C(=O)[C@H](O)C3=C(C)[C@@H](OC(=O)[C@H](O)[C@@H](NC(=O)OC(C)(C)C)c4ccccc4)C[C@@](O)([C@@H](OC(=O)c4ccccc4)[C@H]21)C3(C)C` the GI50 [8] was 0.297 µM, the TGI [8] was > 56.7 µM and the GI50 [3] was 0.0112 µM and 0.0271 µM. For the same compound, the TGI [3] was 17.4 µM, the GI50 [4] was 0.00368 µM and 0.00371 µM and the TGI [4] was 0.0525 µM and 0.0223 µM. For the same compound, the GI50 [5] was 0.0114 µM, the TGI [5] was 21.2 µM and the GI50 [6] was 0.0356 µM and 0.0257 µM. For the same compound, the TGI [6] was > 100 µM, the GI50 [9] was 0.0397 µM and 0.0317 µM and the TGI [7] was 74.5 µM.

`CCN(CC)CCCn1cnc2ncccc2c1=O` was tested, and the TGI [2] was > 100 µM, the TGI [3] was > 100 µM and the TGI [4] was > 100 µM. For the same compound, the TGI [5] was > 100 µM and the TGI [6] was > 100 µM.

In the case of `CCC1C(=O)OCc2c1cc1n(c2=O)Cc2cc3ccccc3nc2-1` (stereo unspecified), the TGI [1] is reported as > 100 µM.

`C/C=C/C1=C(Cl)C(=O)[C@@H](Cl)[C@@]1(O)C(=O)OC` showed a TGI [8] of 43.9 µM, a TGI [2] of 39.4 µM and a TGI [3] of 9.61 µM. For the same compound, the TGI [4] was > 34.4 µM, the TGI [5] was 10.1 µM and the TGI [6] was 7.41 µM. The TGI [9] was 13.3 µM, the TGI [10] was 4.48 µM and the TGI [7] was 11 µM.

Compound `O=C1c2cccnc2C(=O)C2C3C=CC(C3)C12` (stereo unspecified) has a TGI [1] of 13.2 µM.

For `S=C(N/N=C(/c1ccccc1)c1ccccn1)N1CCCCC1`, the GI50 [1] was 0.118 µM and the TGI [1] was 2.26 µM and 2.62 µM.

For `O=C(CCC(=O)Nc1cccc(Cl)c1)CC(=O)c1ccc(F)cc1`, the TGI [2] was > 100 µM, the TGI [3] was > 100 µM and the TGI [9] was > 100 µM.

`[Cl][Sn]([Cl])([c]1ccccc1)[c]1ccccc1` was tested, and the GI50 [2] was 9.33 µM, the TGI [2] was 56.7 µM and the GI50 [4] was 2.67 µM. For the same compound, the TGI [4] was > 100 µM, the GI50 [5] was 19.5 µM and the TGI [5] was 68.6 µM. It also gave a GI50 [6] of 1.53 µM, a TGI [6] of 2.93 µM and a GI50 [9] of 2.58 µM. The TGI [9] was 6.21 µM, the GI50 [7] was 17.9 µM and the TGI [7] was 31.8 µM.

`CN(C)CCN(C)CC1COC(C)(C)O1` (stereo unspecified) was tested, and the TGI [2] was > 100 µM, the TGI [3] was > 100 µM and the TGI [5] was > 100 µM. The TGI [6] was > 100 µM, the TGI [9] was > 100 µM and the TGI [7] was > 100 µM.

In the case of `C/C(=N\NC(N)=S)c1cc(C)c(C)cc1C`, the TGI [8] is reported as > 100 µM, the TGI [2] is reported as > 100 µM and the TGI [3] is reported as > 100 µM. For the same compound, the TGI [4] was 42.3 µM, the TGI [5] was 74.2 µM and the TGI [6] was > 100 µM. For the same compound, the TGI [9] was 50.3 µM and the TGI [7] was > 100 µM.

Work on `CCC[CH2][Sn]([CH2]CCC)([O]C(=O)c1cc(F)ccc1F)[O][Sn]([CH2]CCC)([CH2]CCC)[O]C(=O)c1cc(F)ccc1F` yielded a GI50 [2] of 0.222 µM, a TGI [2] of 1.59 µM and a GI50 [3] of 0.331 µM. It also gave a TGI [3] of 1.56 µM, a GI50 [4] of 0.0832 µM and a TGI [4] of 0.25 µM. The GI50 [5] was 0.0854 µM, the TGI [5] was 0.459 µM and the GI50 [6] was 0.0185 µM. The TGI [6] was 0.155 µM, the GI50 [1] was 0.239 µM and the TGI [1] was 1.46 µM. For the same compound, the GI50 [9] was 0.16 µM, the TGI [9] was 0.305 µM and the GI50 [7] was 0.654 µM. It also gave a TGI [7] of 1.67 µM.

In the case of `CC1=C(/C=C/C(=O)O)C(C)(C)CCC1`, the TGI [1] is reported as > 100 µM.

For `Cc1oc2c(C)c3oc(=O)cc(C)c3cc2c1CNC(=O)[C@@H]1OCCOCCOCCOCCOCCOC1C(=O)O` (stereo partly specified), the TGI [8] was > 100 µM, the TGI [2] was > 100 µM and the TGI [3] was > 100 µM. The TGI [4] was > 100 µM, the TGI [5] was > 100 µM and the TGI [6] was 27.7 µM. For the same compound, the TGI [7] was > 100 µM.

Source: PubChem BioAssay (NCI)
